Assay results: patent US5380732A, “Pesticidal compounds” (priority 1986, dated 1995)

How the values were obtained:
Format in all cases: in vivo
Musca domestica = assay: spray onto 20 female Musca, mortality after 2 days (Example C); details: 25° C.
Experimental: (§1) The compounds of the invention were tested by dissolving them in acetone (5%) and then diluting in water/`Synperonic` (94.5%/0.5%) to give a water emulsion. ("Synperonic" is a R.T.M. of I.C.I. plc and is nonylphenol ethoxylate in aqueous solution to give 27%; available from B.D.H., Poole, Dorset, England). The solution was then used to treat the following insects.
20 female Musca were contained in a cardboard cylinder with gauze over either end. Solution containing the compound was sprayed onto the insects so enclosed and mortality assessed after 2 days at 25° C.

Tetranychus urticae = assay: leaf discs of infested french bean sprayed (Example C); details: 2 days, 25° C.
Experimental: as §1
Leaf discs of infested french bean were sprayed with the solution containing the compound. Mortality was assessed after 2 days at 25° C.

Plutella xylostella [1] = assay: fourth instar Plutella larvae sprayed and added to sprayed chinese cabbage leaf (Example C); details: 2 days, 25° C.
Experimental: as §1
7 Fourth instar Plutella larvae were sprayea with the solution containing the compound and added to a chinese cabbage leaf which had been similarly sprayed and left to dry. Mortality was assessed after 2 days at 25° C.

Myzus persicae = assay: adult Myzus on chinese cabbage leaf disc sprayed (Example C); details: 2 days, 25° C.
Experimental: as §1
10 adult Myzus were placed on a leaf disc of chinese cabbage. 24 hours later the disc was sprayed with the solution containing the compound. Mortality was assessed after 2 days at 25° C.

Spodoptera littoralis [2] = assay: injection into fifth instar Spodoptera littoralis larvae (Example D); details: 5% solution in DMSO/acetone (50:50), 1.0 ul injected, 2 days, 25° C.
Experimental: The compounds of the invention were also tested by dissolving them in DMSO/acetone (50:50) to give a 5% solution, 1.0 ul of which was injected into fifth instar Spodoptera littoralis larvae. Mortality was assessed after 2 days at 25° C.

Sitophilus granarius = assay: adults on treated wheat, mortality after 6 days, Sitophilus (Example C); details: 25° C.
Experimental: as §1
20 adult Sitophilus and Tribolium were added to 10 g wheat which had been previously treated with 2 ml of the solution containing the compound. Mortality was assessed after 6 days at 25° C.

Plutella xylostella [3] = assay: discs of chinese cabbage infested with second instar Plutella larvae sprayed (Example C); details: 2 days, 25° C.
Experimental: as §1
or Discs of chinese cabbage infested with c8 second instar Plutella larvae were sprayed with the solution containing the compound. Mortality was assessed after 2 days at 25° C.

Spodoptera littoralis [4] = assay: sprayed leaves infested with newly hatched Spodoptera larvae (Example C); details: at 200 ppm, +pip but, 3 days
Experimental: as §1
Uninfested leaves were sprayed with the test solution containing the compound (+pip but) and left to dry. These were then infested with 10 newly hatched larvae. Mortality was assessed after 3 days.

[5] = tested on: Diabrotica undecimpunctata; assay: 2nd instar larvae and their food sprayed on filter paper (Example C); details: at 1000 ppm; 2nd instar larvae, 2 days
Experimental: as §1
2nd instar larvae and their food were sprayed on filter paper with the solution containing the compound. Activity was assessed at 2 days.

Blatella germanica = assay: activity against Blatella germanica with piperonyl butoxide; details: at up to 10 μg per insect (+piperonyl butoxide)

## CCC(C)NC(=O)C=CC=CCCCCCCCOc1cccc(C(F)(F)F)n1 (stereo not shown) [Example 4]
Musca domestica; at 200 ppm
  active (mortality): active
Tetranychus urticae; at 1000 ppm
  active (mortality): active

## CC(C)C(C)NC(=O)C=CC=CCCCCCCCOc1cncc(Cl)c1 (stereo not shown) [Example 24]
Plutella xylostella [1]; at 1000 ppm
  active (mortality): active

## CC(C=CCCCCCCCOc1cccc(Cl)n1)=CC(=O)NCC(C)C [Example 9]
Musca domestica; at 1000 ppm
  active (mortality): active
Plutella xylostella [1]; at 200 ppm
  active (mortality): active
Tetranychus urticae; at 200 ppm
  active (mortality): active

## CC(C)CNC(=O)C=CC=CCCCCCCCOc1ccccn1 [Example 15]
Myzus persicae; at 200 ppm
  active (mortality): active

## CC(C)CNC(=O)C=CC=CCCCCCCCOc1ncccc1Cl [Example 12]
Myzus persicae; at 1000 ppm
  active (mortality): active

## CC(C)CNC(=O)C=CC=CCCCCCCCOc1ncccc1C(F)(F)F [Example 7]
Plutella xylostella [1]; at 1000 ppm
  active (mortality): active
Spodoptera littoralis [2]
  active (mortality): active

## CC(C)CNC(=O)C=CC=CCCCCCCCOc1cc(C(F)(F)F)cc(Cl)n1 [Example 10]
Musca domestica; at 1000 ppm
  active (mortality): active
Sitophilus granarius
  active (mortality): active

## CC1(CNC(=O)/C=C/C=C/CCCCCCCOc2cc(C(F)(F)F)cc(C(F)(F)F)n2)OCCO1 [Example 22, (2E,4E) N-(2-methyl-1,3-dioxalan-2-yl)-methyl 12-(4',6'-bistrifluoromethyl-2-pyridyloxy)-dodeca-2,4-dienamide]
Musca domestica; at 200 ppm
  active (mortality): active
Sitophilus granarius
  active (mortality): active

## CC(C)CNC(=O)C=CC=CCCCCCCCOc1nc(C(F)(F)F)ccc1C(F)(F)F [Example 20]
Plutella xylostella [3]; at 200 ppm
  active (mortality): active

## CC(C)CNC(=O)/C=C/C=C/CCCCCCCOc1ccncc1 [Example 31, (2E,4E) N-Isobutyl 12-(4'-pyridyloxy)-dodeca-2,4-dienamide]
Sitophilus granarius
  active (mortality): active
Myzus persicae; at 1000 ppm
  active (mortality): active

## CCC(C)NC(=O)C=CC=CCCCCCCCOc1ccccn1 (stereo not shown) [Example 16]
Musca domestica; at 1000 ppm
  active (mortality): active
Myzus persicae; at 200 ppm
  active (mortality): active

## (2E,4E) N-Isobutyl 12-(4'-chloro-2'-pyrimidyloxy)-dodeca-2,4-dienamide and (2E,4E) N-Isobutyl 12-(2'-chloro-4-pyrimidyloxy)-dodeca-2,4-dienamide [Example 32]
Tetranychus urticae; at 1000 ppm
  active (mortality): active

## C=C(C)CNC(=O)C=CC=CCCCCCCCOc1cc(C(F)(F)F)cc(C(F)(F)F)n1 [Example 21]
Musca domestica; at 200 ppm
  active (mortality): active
Sitophilus granarius
  active (mortality): active
Tetranychus urticae; at 1000 ppm
  active (mortality): active

## CC(/C=C/CCCCCCOCc1cccc(Cl)n1)=C\C(=O)NCC(C)C [Example 36, (2E,4E) N-Isobutyl 11-(6'-chloro-2'-pyridylmethoxy) -3-methylundeca-2,4-dienamide]
Plutella xylostella [3]; at 1000 ppm
  active (mortality): active
Tetranychus urticae; at 1000 ppm
  active (mortality): active

## CCC(C)NC(=O)C=C(C)C=CCCCCCCCOc1ncccc1Cl (stereo not shown) [Example 13]
Myzus persicae; at 200 ppm
  active (mortality): active

## CC(C)CNC(=O)/C=C/C=C/CCCCCCCOc1cc(C(F)(F)F)nc(C(F)(F)F)c1 [Example 35, (2E,4E) N-Isobutyl 12-(2',6'-bistrifluoromethyl-4'-pyridyloxy)-dodeca-2,4-dienamide]
Musca domestica; at 1000 ppm
  active (mortality): active
Sitophilus granarius
  active (mortality): active
Plutella xylostella [3]; at 200 ppm
  active (mortality): active
Spodoptera littoralis [2]
  active (mortality): active

## CC(/C=C/CCCCCCCOc1ncc(C(F)(F)F)cc1C(F)(F)F)=C(/F)C(=O)NCC(C)C [Example 38, (2Z,4E)N-Isobutyl 2-fluoro-3-methyl-12-(3,5-bistrifluoromethyl-2-pyridyloxy)dodeca-2,4-dienamide]
Musca domestica; at 1000 ppm
  active (mortality): active
Plutella xylostella [1]; at 40 ppm
  active (mortality): active
Tetranychus urticae; at 200 ppm
  active (mortality): active
Spodoptera littoralis [4]
  active (mortality): active
[5]
  active: active
Blatella germanica
  active: active

## CC(C)CNC(=O)C=CC=CCCCCCCCOc1cncc(Cl)c1 [Example 25]
Tetranychus urticae; at 200 ppm
  active (mortality): active
